Laboratory results taken from the Kinase Knowledgebase extract (Sharma et al. 2016).

Key:
EGFR (human) = EGFR (human) (UniProt P00533)
[1] = molecular target: EGFR (Human), P00533 [T790M/L858R]
[2] = molecular target: EGFR (Human), P00533 [Assessment of EGFR-Del T790M Dependent Cell Proliferation in BaF3 Cells]
[3] = molecular target: EGFR (human), P00533 [L858R]
[4] = molecular target: EGFR (Human), P00533 [T790M/L858R]; conditions: baf3

Chain of EGFR (Human), P00533 [Assessment of EGFR-Del T790M Dependent Cell Proliferation in BaF3 Cells] (P00533 whole entry, looked up, stated change not applied): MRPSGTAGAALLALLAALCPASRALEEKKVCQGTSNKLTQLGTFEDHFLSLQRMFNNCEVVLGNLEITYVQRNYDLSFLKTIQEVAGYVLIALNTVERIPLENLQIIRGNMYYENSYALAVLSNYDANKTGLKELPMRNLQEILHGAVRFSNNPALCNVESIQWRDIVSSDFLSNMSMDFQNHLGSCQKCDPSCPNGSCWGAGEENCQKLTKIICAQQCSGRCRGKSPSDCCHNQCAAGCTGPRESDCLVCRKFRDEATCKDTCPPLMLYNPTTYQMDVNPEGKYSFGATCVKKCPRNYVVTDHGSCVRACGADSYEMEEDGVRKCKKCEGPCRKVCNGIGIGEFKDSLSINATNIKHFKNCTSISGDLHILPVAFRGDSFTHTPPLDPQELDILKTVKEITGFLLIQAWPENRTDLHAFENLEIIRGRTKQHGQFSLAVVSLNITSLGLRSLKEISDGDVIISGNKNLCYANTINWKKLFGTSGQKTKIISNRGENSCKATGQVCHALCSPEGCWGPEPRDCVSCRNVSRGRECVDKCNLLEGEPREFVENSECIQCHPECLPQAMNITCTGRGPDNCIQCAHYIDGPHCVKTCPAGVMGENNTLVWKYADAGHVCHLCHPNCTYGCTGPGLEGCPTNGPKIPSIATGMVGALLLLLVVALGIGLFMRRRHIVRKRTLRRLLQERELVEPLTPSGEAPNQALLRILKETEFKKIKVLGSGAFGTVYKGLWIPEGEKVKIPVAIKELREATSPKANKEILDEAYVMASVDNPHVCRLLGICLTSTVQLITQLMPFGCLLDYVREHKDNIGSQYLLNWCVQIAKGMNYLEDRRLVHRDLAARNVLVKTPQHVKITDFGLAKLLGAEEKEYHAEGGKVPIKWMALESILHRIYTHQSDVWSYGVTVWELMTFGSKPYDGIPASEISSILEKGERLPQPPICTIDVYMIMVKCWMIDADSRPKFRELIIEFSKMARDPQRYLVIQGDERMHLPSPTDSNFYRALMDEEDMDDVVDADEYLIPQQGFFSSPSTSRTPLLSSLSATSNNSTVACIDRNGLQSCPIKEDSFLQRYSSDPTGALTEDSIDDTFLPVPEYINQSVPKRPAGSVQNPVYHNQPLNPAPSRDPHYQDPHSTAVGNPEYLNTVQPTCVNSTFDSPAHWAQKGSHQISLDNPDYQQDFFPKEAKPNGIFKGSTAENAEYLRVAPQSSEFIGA
Chain of EGFR (human) (P00533 whole entry, looked up): as the sequence (P00533 whole entry, looked up, stated change not applied) above
Chain of EGFR (human), P00533 [L858R] (P00533 whole entry L858R, looked up): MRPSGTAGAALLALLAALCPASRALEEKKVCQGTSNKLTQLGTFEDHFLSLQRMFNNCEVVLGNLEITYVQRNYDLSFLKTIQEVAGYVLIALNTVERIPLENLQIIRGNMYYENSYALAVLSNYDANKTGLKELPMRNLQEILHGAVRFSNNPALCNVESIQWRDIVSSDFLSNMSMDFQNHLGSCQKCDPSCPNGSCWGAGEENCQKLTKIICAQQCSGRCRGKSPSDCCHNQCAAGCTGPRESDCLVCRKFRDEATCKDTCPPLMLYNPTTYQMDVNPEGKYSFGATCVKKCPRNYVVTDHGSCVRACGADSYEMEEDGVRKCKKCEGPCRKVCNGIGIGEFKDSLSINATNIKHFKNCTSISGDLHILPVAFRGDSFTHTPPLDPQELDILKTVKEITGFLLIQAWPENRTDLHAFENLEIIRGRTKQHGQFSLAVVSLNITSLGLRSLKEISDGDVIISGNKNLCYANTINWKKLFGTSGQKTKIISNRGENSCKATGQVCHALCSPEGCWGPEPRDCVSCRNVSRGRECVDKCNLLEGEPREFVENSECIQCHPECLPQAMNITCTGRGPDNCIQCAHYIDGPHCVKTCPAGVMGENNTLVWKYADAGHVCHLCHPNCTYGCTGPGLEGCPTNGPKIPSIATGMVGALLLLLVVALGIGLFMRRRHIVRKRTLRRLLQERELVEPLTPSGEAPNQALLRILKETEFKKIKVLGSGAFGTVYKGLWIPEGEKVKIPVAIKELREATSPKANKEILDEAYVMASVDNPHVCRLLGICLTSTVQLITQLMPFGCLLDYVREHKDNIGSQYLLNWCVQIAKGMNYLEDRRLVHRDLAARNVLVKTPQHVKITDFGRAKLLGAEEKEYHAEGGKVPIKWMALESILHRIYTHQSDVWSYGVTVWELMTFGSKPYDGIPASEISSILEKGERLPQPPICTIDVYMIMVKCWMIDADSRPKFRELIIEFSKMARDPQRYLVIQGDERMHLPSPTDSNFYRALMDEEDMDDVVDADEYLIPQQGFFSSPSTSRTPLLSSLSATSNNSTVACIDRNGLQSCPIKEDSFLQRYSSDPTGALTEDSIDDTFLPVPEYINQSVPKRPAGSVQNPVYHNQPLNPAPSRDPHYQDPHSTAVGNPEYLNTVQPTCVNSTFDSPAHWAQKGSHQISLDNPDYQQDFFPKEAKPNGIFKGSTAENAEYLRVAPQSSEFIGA
Chain of EGFR (Human), P00533 [T790M/L858R] (P00533 whole entry T790M/L858R, looked up): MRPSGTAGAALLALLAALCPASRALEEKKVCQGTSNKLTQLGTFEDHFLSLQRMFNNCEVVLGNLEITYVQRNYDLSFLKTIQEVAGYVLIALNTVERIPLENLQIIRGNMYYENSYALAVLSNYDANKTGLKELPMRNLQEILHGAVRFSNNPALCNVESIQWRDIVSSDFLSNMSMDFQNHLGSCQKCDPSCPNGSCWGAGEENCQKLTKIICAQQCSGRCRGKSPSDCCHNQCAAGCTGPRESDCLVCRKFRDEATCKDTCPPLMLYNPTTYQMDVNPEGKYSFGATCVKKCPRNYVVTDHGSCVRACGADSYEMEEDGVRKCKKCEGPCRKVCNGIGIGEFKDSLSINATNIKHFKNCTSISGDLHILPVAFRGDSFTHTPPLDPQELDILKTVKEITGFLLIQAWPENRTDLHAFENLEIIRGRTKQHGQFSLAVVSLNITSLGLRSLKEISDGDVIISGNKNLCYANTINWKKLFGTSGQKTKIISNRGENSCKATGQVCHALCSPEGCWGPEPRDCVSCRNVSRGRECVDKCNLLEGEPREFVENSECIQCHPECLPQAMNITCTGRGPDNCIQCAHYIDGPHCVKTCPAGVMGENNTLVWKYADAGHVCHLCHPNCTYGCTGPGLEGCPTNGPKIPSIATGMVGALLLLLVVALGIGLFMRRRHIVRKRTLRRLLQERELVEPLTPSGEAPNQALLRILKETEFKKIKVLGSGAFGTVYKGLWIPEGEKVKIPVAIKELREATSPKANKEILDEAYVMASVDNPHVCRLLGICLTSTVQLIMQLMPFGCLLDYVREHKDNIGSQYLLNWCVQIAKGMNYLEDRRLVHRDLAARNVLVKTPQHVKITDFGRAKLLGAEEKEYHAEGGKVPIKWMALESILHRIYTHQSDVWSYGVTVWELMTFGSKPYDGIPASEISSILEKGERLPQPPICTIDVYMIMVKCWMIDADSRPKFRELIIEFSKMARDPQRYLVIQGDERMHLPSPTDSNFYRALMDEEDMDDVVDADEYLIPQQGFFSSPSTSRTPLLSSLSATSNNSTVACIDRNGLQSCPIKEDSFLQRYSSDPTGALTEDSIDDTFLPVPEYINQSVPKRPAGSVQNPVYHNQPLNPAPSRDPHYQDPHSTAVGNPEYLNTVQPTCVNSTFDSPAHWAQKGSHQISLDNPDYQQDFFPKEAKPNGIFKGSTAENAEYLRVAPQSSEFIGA

COc1ccc(NC(=O)C#CC(C)(C)N2CCCC2)cc1Nc1ncc(Cl)c(Nc2ccccc2P(C)(C)=O)n1
IC50 (EGFR (human)): < 50 nM | IC50 [1]: < 50 nM | IC50 [2]: < 50 nM | IC50 [3]: < 50 nM | IC50 [4]: < 50 nM

COCC#CC(=O)Nc1ccc(OC)c(Nc2ncc(Cl)c(Nc3ccccc3P(C)(C)=O)n2)c1
IC50 (EGFR (human)): < 50 nM | IC50 [1]: < 50 nM | IC50 [2]: < 50 nM | IC50 [3]: < 50 nM | IC50 [4]: < 50 nM

C=CC(=O)Nc1cc(Nc2ncc(Cl)c(Nc3ccccc3P(C)(C)=O)n2)c(OC)cc1O[C@@H](COC)CN(C)C
IC50 (EGFR (human)): < 50 nM | IC50 [1]: < 50 nM | IC50 [2]: < 50 nM | IC50 [3]: < 50 nM | IC50 [4]: < 50 nM

C=CC(=O)Nc1cc(Nc2ncc(Cl)c(Nc3ccccc3P(C)(C)=O)n2)c(OC)cc1N1CCC(N2CCN(C)CC2)C1 (stereo not given)
IC50 (EGFR (human)): < 50 nM | IC50 [1]: < 50 nM | IC50 [2]: 50 to 100 nM | IC50 [3]: < 50 nM | IC50 [4]: 101 to 250 nM

C=CC(=O)Nc1ccc(Nc2ncc(Cl)c(Nc3cccc(OCCN4CCCCC4)c3P(C)(C)=O)n2)c(OC)c1
IC50 (EGFR (human)): 101 to 250 nM | IC50 [1]: < 50 nM | IC50 [2]: < 50 nM | IC50 [3]: < 50 nM | IC50 [4]: 101 to 250 nM

C=C(CN1CCCC1)C(=O)Nc1ccc(OC)c(Nc2ncc(Cl)c(Nc3ccccc3P(C)(C)=O)n2)c1
IC50 (EGFR (human)): < 50 nM | IC50 [1]: < 50 nM | IC50 [2]: < 50 nM | IC50 [3]: < 50 nM | IC50 [4]: < 50 nM

C=CC(=O)Nc1cc(Nc2ncc(Cl)c(Nc3ccccc3P(C)(C)=O)n2)c(OC)cc1OCc1cccnc1
IC50 (EGFR (human)): 50 to 100 nM | IC50 [1]: < 50 nM | IC50 [2]: 50 to 100 nM | IC50 [3]: < 50 nM | IC50 [4]: 101 to 250 nM

C=CC(=O)Nc1cc(Nc2ncc(Cl)c(Nc3ccccc3P(C)(C)=O)n2)c(OC)cc1C#CCN(C)CC
IC50 (EGFR (human)): < 50 nM | IC50 [1]: < 50 nM | IC50 [2]: < 50 nM | IC50 [3]: < 50 nM | IC50 [4]: < 50 nM

C=CC(=O)Nc1cc(Nc2ncc(Cl)c(Nc3ccc(OCCN4CCCC4)cc3P(C)(C)=O)n2)c(OC)cc1F
IC50 (EGFR (human)): < 50 nM | IC50 [1]: < 50 nM | IC50 [2]: < 50 nM | IC50 [3]: < 50 nM | IC50 [4]: < 50 nM

COc1ccc(NC(=O)/C=C/CN2CCCCC2)cc1Nc1ncc(Cl)c(Nc2ccccc2P(C)(C)=O)n1
IC50 (EGFR (human)): < 50 nM | IC50 [1]: < 50 nM | IC50 [2]: < 50 nM | IC50 [3]: < 50 nM | IC50 [4]: < 50 nM

CC#CC(=O)Nc1cc(Nc2ncc(Cl)c(Nc3ccccc3P(C)(C)=O)n2)c(OC)cc1N1CCC(N2CCN(C)CC2)CC1
IC50 (EGFR (human)): 50 to 100 nM | IC50 [1]: < 50 nM | IC50 [2]: < 50 nM | IC50 [3]: < 50 nM | IC50 [4]: < 50 nM

C=C(CN1CCC(O)C1)C(=O)Nc1ccc(OC)c(Nc2ncc(Cl)c(Nc3ccccc3P(C)(C)=O)n2)c1 (stereo not given)
IC50 (EGFR (human)): < 50 nM | IC50 [1]: < 50 nM | IC50 [2]: < 50 nM | IC50 [3]: < 50 nM | IC50 [4]: < 50 nM

C=CC(=O)Nc1cc(Nc2ncc(Cl)c(Nc3ccccc3P(C)(C)=O)n2)c(OC)cc1C#CC(C)(C)N(CC)CC
IC50 (EGFR (human)): < 50 nM | IC50 [1]: < 50 nM | IC50 [2]: < 50 nM | IC50 [3]: < 50 nM | IC50 [4]: < 50 nM

C=C(CN1CCN(S(C)(=O)=O)CC1)C(=O)Nc1ccc(OC)c(Nc2ncc(Cl)c(Nc3ccccc3P(C)(C)=O)n2)c1
IC50 (EGFR (human)): < 50 nM | IC50 [1]: < 50 nM | IC50 [2]: < 50 nM | IC50 [3]: < 50 nM | IC50 [4]: < 50 nM

C=CC(=O)Nc1cc(Nc2ncc(Cl)c(Nc3ccccc3P(C)(C)=O)n2)c(OC)cc1OCCN1CCOCC1
IC50 (EGFR (human)): < 50 nM | IC50 [1]: < 50 nM | IC50 [2]: 50 to 100 nM | IC50 [3]: < 50 nM | IC50 [4]: 101 to 250 nM

C=CC(=O)Nc1cc(Nc2ncc(Cl)c(Nc3ccccc3P(C)(C)=O)n2)c(OC)cc1C#CCN(C)C1CCCC1
IC50 (EGFR (human)): < 50 nM | IC50 [1]: < 50 nM | IC50 [2]: < 50 nM | IC50 [3]: < 50 nM | IC50 [4]: < 50 nM

C=C(CN1CCN(CCO)CC1)C(=O)Nc1ccc(OC)c(Nc2ncc(Cl)c(Nc3ccccc3P(C)(C)=O)n2)c1
IC50 (EGFR (human)): < 50 nM | IC50 [1]: < 50 nM | IC50 [2]: < 50 nM | IC50 [3]: < 50 nM | IC50 [4]: < 50 nM

C=CC(=O)Nc1cc(Nc2ncc(Cl)c(Nc3ccccc3P(C)(C)=O)n2)c(OC)cc1C#CCCN(C)C
IC50 (EGFR (human)): < 50 nM | IC50 [1]: < 50 nM | IC50 [2]: < 50 nM | IC50 [3]: < 50 nM | IC50 [4]: < 50 nM
